Data as given in patent US10858384B2, “Synthetic molecule constructs” (KODE BIOTECH LIMITED, priority 2004, dated 2020).

Assays:
[1] = system: RBCs; assay: Column agglutination of RBCs transformed with sterile-filtered vs unfiltered synthetic glycolipid; assay type: cell-based; settings: for Column agglutination: 0.01 mg/mL, anti-A BioClone
Source text: Some Atri-sp-Ad-DOPE (I) had been sterile-filtered through a 0.2 μm filter. To investigate whether transformation would be the same with this product a comparative trial was done.

[2] = system: RBCs; assay: Insertion efficiency: post-transformation supernatant solutions, tube serology; assay type: cell-based
Experimental: The post-transformation supernatant solutions (from Atri-sp-Ad-DOPE (I) at 0.08 mg/mL, 0.05 mg/mL and 0.03 mg/mL, and Btri-sp-Ad-DOPE (VI) at 0.6 mg/mL, 20 μL) were added neat and in a 1:2 dilution to washed, packed RBCs (60 μL). The tubes were incubated in a 37° C. waterbath for one hour, with mixing taking place every 15 minutes.
The transformed RBCs were washed 3× with PBS and then suspended in Cellstab™ at the appropriate concentration for serology testing.

[3] = Solubility of synthetic glycolipids in hot PBS; assay type: physicochemical; settings: hot PBS
Source text: In the context of this description the phrase “water soluble” means a stable, single phase system is formed when the synthetic molecule construct is contacted with water or saline (such as PBS) in the absence of organic solvents or detergents, and the term “solution” has a corresponding meaning.
For use in the transformation of cells the first criterion that synthetic glycolipids must satisfy is that they are soluble in aqueous solvents, e.g. phosphate buffered saline.
Initial tests on the molecules were to establish solubility and thus eliminate those molecules that were unsuitable for use in the transformation of cells.

[4] = system: RBCs; assay: Evaluation of insertion of different lipid tails by agglutination with the relevant antisera; assay type: cell-based; parameters: scale not given here
Source text: Transformation of RBCs with synthetic glycolipids with different lipid tails was first evaluated (Tables 22 and 24).

[5] = system: RBCs; assay: Insertion efficiency: post-transformation solutions concentrated 20x, Diamed serology; assay type: cell-based; settings: post-transformation solution concentrated 20×, from 0.08 mg/mL
Experimental: In addition, the post-transformation solutions were concentrated 20× and compared in parallel with the transformation solutions of known concentration. Only the post-transformation solutions derived from the 0.08 mg/mL Atri-sp-Ad-DOPE (I) and 0.6 mg/mL Btri-sp-Ad-DOPE (VI) solutions were tested.
Post-transformation solutions (20 μL) were dialysed (pore size 500 Da) against de-ionised water for 2 days. The samples were left to dry in a fumehood for 10 days. At the end of this time they were transferred into a rotavapor flask and set on the rotavapor to rotate under vacuum with no heat overnight. Samples were dried in a water bath at 40° C. and washed over into smaller vessels with chloroform-methanol 2:1 leaving significant amounts of dried cellular material. The chloroform-methanol 2:1 washings were dried down, washed over again into test-tubes with chloroform-methanol 2:1 and dried down. These samples were redissolved in 1 mL of 1× PBS and used for transformation experiments. The cellular material in the bottom of the flasks was washed out with water into another set of tubes.
The post-transformation solutions (from Atri-sp-Ad-DOPE (I) at 0.08 mg/mL and Btri-sp-Ad-DOPE (VI) at 0.6 mg/mL, 20 μL) were added to washed, packed RBCs (60 μL). […]

[6] = system: group O red blood cells (RBCs); assay: Tube serology of group O RBCs transformed at 37° C. with synthetic glycolipids; assay type: cell-based, human; parameters: Albaclone anti-A, Tube / Bioclone anti-A, Tube: scale not given here
Experimental: Washed packed group O red blood cells (RBCs) (3 parts by volume) and the synthetic glycolipid solution (1 part by volume, varying concentrations) were added to an eppendorf tube. The tube was incubated in a 37° C. waterbath for one hour, mixing every 15 minutes. […]
Tube serology and Diamed gel-card results for RBCs transformed with the different synthetic molecule constructs are provided in Table 38. Results for the stability of the RBCs transformed with the different synthetic glycolipids at different concentrations are provided in Tables 39 to 44.

CCCCCCCC/C=C\CCCCCCCC(=O)OC[C@H](COP(=O)(O)OCCNC(=O)CCCCC(=O)NCCCO[C@@H]1O[C@H](CO)[C@H](O)[C@H](O[C@H]2O[C@H](CO)[C@H](O)[C@H](O)[C@H]2NC(C)=O)[C@H]1O[C@@H]1O[C@@H](C)[C@@H](O)[C@@H](O)[C@@H]1O)OC(=O)CCCCCCC/C=C\CCCCCCCC [Atri-sp-Ad-DOPE (I)]
no significant difference: Difference in transformation between sterile-filtered (0.2 μm) and unfiltered preparation [1]
Yes: Water solubility [3]
w+: Agglutination score ([4]; 30 μg/mL, Bio anti-A, first series) | Agglutination score ([4]; 40 μg/mL, Alba anti-A, first series) | Agglutination score ([4]; 50 μg/mL, Alba anti-A, first series) | Agglutination, manual tube serology, Albaclone anti-A ([6]; 0.025 mg/mL, Day 8, Alsevers) | Agglutination, manual tube serology, Bioclone anti-A ([6]; 0.025 mg/mL, Day 22, Alsevers) | Agglutination, manual tube serology, Albaclone anti-A ([6]; 0.025 mg/mL, Day 44, Cellstab) | Agglutination, manual tube serology, Bioclone anti-A ([6]; 0.025 mg/mL, Day 44, Cellstab) | Bioclone anti-A, Tube ([6]; 0.03 mg/mL) | Albaclone anti-A, Tube ([6]; 0.04 mg/mL) | Albaclone anti-A, Tube ([6]; 0.05 mg/mL) | Agglutination, manual tube serology, Albaclone anti-A ([6]; 0.05 mg/mL, Day 15, Cellstab)
Vw: Agglutination, manual tube serology, Bioclone anti-A ([6]; 0.025 mg/mL, Day 15, Alsevers)
0: Column agglutination ([1]; sterile-filtered) | Column agglutination ([1]; unfiltered) | Score (tube serology) ([2]; 1:2, pre-trans conc 0.03 mg/mL) | Score (tube serology) ([2]; 1:2, pre-trans conc 0.05 mg/mL) | Score (tube serology) ([2]; 1:2, pre-trans conc 0.08 mg/mL) | Score (tube serology) ([2]; neat, pre-trans conc 0.03 mg/mL) | Score (tube serology) ([2]; neat, pre-trans conc 0.05 mg/mL) | Score (tube serology) ([2]; neat, pre-trans conc 0.08 mg/mL, 37° C. 1 h) | Agglutination score ([4]; 10 μg/mL, Alba anti-A, first series) | Agglutination score ([4]; 10 μg/mL, Bio anti-A, first series) | Agglutination score ([4]; 20 μg/mL, Alba anti-A, first series) | Agglutination score ([4]; 20 μg/mL, Bio anti-A, first series) | Agglutination score ([4]; 30 μg/mL, Alba anti-A, first series) | Agglutination score ([4]; 1000 μg/mL, DBA) | Score (Diamed serology) [5] | Albaclone anti-A, Tube ([6]; 0.01 mg/mL) | Bioclone anti-A, Tube ([6]; 0.01 mg/mL) | Albaclone anti-A, Tube ([6]; 0.02 mg/mL) | Bioclone anti-A, Tube ([6]; 0.02 mg/mL) | Agglutination, manual tube serology, Albaclone anti-A ([6]; 0.025 mg/mL, Day 15, Alsevers) | Agglutination, manual tube serology, Albaclone anti-A ([6]; 0.025 mg/mL, Day 15, Cellstab) | Agglutination, manual tube serology, Albaclone anti-A ([6]; 0.025 mg/mL, Day 22, Alsevers) | Albaclone anti-A, Tube ([6]; 0.03 mg/mL)
vw: Agglutination, manual tube serology, Albaclone anti-A ([6]; 0.025 mg/mL, Day 8, Cellstab)
